The values below come from patent US9914735B2, “Heteroaryl Syk inhibitors” (Boehringer Ingelheim International GmbH, priority 2014, dated 2018).

As a reminder, the IC50 is the concentration needed to halve the response being measured.

Read-outs that look alike come from different tables or passages of the source.

Series [1] addresses Recombinant human Syk (amino acids 342-635), GST-Syk kinase fusion protein (Homo sapiens (Human), UniProt P43405). As to the kind of experiment: Syk kinase test (Kinase Glo luminescence). Type of series: biochemical.
Series [2] addresses Recombinant human Aurora B (amino acids 1-344) (Homo sapiens (Human), UniProt Q96GD4). As to the kind of experiment: Aurora B kinase test (ADP Glo luminescence). Type of series: biochemical.
Series [3] deals with FLT3 (Homo sapiens (Human), UniProt P36888). The experiment in a line: FLT3 kinase test (Z'-LYTE). Type of series: biochemical. An outline of the steps:
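Z'-LYTE FRET format; kinase reaction started with ATP, run 1 h at room temperature, then 1 h development before stop reagent. Controls without compound, without kinase, and phosphopeptide as 100% phosphorylation reference; values reported in M.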

Series [4] has as its target Human GSK3beta (Homo sapiens (Human), UniProt P49841). The experiment in a line: GSK 3beta kinase test (Z'-LYTE). Type of series: biochemical. As to conditions: read-out: IC50 in μM (GSK3beta-Inhibition).
Series [5] can be described thus: Human liver microsomal stability test. Type of series: in vitro ADME. The settings on record: human liver microsomes; Qh = liver blood flow. On the technique in general: Liver microsomes are vesicles of endoplasmic reticulum, rich in cytochrome P450 enzymes.

Chain of FLT3 (P36888 27-993): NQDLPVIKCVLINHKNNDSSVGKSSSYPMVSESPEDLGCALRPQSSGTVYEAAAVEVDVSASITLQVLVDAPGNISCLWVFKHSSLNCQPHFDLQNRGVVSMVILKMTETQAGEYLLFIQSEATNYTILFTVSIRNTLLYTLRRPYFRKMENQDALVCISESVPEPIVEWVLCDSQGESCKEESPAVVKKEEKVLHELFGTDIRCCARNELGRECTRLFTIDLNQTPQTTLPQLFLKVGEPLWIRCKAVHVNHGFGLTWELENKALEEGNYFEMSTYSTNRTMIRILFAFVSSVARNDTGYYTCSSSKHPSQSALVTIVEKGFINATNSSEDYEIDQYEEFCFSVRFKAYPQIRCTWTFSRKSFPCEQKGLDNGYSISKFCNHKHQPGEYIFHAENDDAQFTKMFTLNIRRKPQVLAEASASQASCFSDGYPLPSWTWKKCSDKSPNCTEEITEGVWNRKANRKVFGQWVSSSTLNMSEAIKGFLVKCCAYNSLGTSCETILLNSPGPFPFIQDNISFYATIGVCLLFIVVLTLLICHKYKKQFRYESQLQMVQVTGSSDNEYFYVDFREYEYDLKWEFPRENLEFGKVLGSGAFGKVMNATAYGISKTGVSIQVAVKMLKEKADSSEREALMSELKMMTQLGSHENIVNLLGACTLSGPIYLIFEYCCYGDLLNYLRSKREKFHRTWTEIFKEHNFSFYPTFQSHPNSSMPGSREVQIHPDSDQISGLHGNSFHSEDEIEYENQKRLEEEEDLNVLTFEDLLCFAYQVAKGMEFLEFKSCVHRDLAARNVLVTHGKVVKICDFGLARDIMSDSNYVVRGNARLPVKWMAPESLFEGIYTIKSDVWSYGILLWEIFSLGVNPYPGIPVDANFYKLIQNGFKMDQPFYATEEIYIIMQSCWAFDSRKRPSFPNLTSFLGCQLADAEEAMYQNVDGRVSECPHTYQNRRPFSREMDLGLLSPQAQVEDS
Chain of Recombinant human Aurora B (amino acids 1-344) (Q96GD4 whole entry, the tested form may be a part): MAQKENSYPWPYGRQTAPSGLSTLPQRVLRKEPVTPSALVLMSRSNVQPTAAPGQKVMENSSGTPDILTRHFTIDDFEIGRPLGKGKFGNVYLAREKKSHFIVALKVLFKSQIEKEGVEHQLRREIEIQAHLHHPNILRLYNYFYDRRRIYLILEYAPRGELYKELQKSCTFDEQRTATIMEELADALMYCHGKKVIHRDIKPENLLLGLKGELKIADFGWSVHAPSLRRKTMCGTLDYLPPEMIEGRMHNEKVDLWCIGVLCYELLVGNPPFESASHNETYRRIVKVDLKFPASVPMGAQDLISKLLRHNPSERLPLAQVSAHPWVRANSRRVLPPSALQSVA
Chain of Human GSK3beta (P49841 whole entry): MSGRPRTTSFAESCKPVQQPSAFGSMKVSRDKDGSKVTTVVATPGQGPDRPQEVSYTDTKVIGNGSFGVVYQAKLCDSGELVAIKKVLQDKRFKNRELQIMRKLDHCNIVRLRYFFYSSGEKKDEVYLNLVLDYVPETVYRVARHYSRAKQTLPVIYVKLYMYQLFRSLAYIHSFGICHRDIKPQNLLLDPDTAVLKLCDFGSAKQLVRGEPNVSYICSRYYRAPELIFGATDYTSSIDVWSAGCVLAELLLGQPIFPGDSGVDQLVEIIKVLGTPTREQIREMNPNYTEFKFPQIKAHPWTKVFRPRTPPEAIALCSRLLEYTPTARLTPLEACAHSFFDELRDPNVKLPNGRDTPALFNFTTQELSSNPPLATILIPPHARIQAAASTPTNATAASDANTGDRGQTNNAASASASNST

For the molecule `COc1cc(-c2cc3nn(C)cc3c(O[C@H](C)[C@H]3CNC(=O)C3)n2)ccc1OC(C)C` [Example 81, (4R)-4-[(1R)-1-[6-(4-isopropoxy-3-methoxy-phenyl)-2-methyl-pyrazolo-[4,3-c]pyridin-4-yl]oxyethyl]-pyrrolidin-2-one], the half-maximal inhibitory concentration (IC50) in series [1] (Table 1, read-out: SYK-inhibition IC50-value) came to 0.024 µM; in series [1] (read-out: IC50 in μM (SYK-Inhibition)), 0.024 µM; in series [2] (Table 1, read-out: AURB-inhibition IC50-value) it was 48.4 µM; in series [2] (read-out: IC50 in μM (AURB-Inhibition)), 48.4 µM; in series [3] (Table 1, read-out: FLT3-inhibition IC50-value) it was 5.24 µM; in series [3] (read-out: IC50 in μM (FLT3-Inhibition)), 5.24 µM. Further, the IC50 in series [4] was above 10 µM. In series [5], the “microsomal stability Cl [% Qh]” value is given as below 23 % Qh.
